The text below walks through data of patent US20230083717A1, “METHODS AND COMPOSITIONS FOR PROMOTING ADIPOCYTE BEIGING” (Flagship Pioneering Innovations VI, LLC, priority 2021, published 2023).

The experiment relates to UCP1. Kind of experiment: in vivo assay of induction of beige adipocytes in visceral and subcutaneous fat depots. The conditions noted are these: 1 mg/kg intraperitoneal, C57Bl6/J mice, vs control mice. The method, then:
An in vivo assay of induction of beige adipocytes in visceral and subcutaneous fat depots was established using the β3-receptor agonist CL316243. 8-week old male C57Bl6/J mice were dosed with 1 mg/kg CL316243 with intraperitoneal injections, either every day for 1 week or every other day for two weeks. The vehicle was used as a negative control. Following the dosage administration, the mice were sacrificed, and epididymal (visceral) and inguinal (subcutaneous) fat was excised. The expression of UCP1 was assessed in the excised epididymal (visceral) and inguinal (subcutaneous) fat, by western blot and immunohistochemistry. […] The adipose tissue cells in epididymal (visceral) and inguinal (subcutaneous) fat from CL 316234 treated mice were also smaller compared to the cells from control mice (FIG. 3A).

On to `C[C@H](Cc1ccc2c(c1)OC(C(=O)O)(C(=O)O)O2)NC[C@H](O)c1cccc(Cl)c1` [CL 316234], for which the “expression of UCP1 by immunohistochemistry in epididymal (visceral) and inguinal (subcutaneous) fat” value is recorded as “increased expression of UCP1”; the “expression of UCP1 by western blot in inguinal and epididymal fat” value is “increased expression of UCP1”; the “size of adipose tissue cells in epididymal and inguinal fat” value is given as “smaller”.
